Assay results reported in ChEMBL document CHEMBL1154345, “Discovery of tricyclic 5,6-dihydro-1H-pyridin-2-ones as novel, potent, and orally bioavailable inhibitors of HCV NS5B polymerase” (Bioorg Med Chem Lett, 2009).

Tested on: Hepatitis C virus
Test: microbe, parasite or virus in culture
Type: functional, organism-based, Hepacivirus hominis, subtype 1a, Huh-lunet
Settings: Hepatitis C virus, subtype 1a, Huh-lunet, 96 h
Description: Antiviral activity against HCV-1a infected in human Huh-lunet cells after 4 days by luciferase based replicon assay

Point of comparison: `CS(=O)(=O)Nc1ccc2c(c1)S(=O)(=O)N=C(C1=C(O)[C@@H]3[C@H]4CC[C@H](C4)[C@@H]3N(Cc3ccc(F)cc3F)C1=O)N2`, EC50 290 nM. Against it:
- CS(=O)(=O)Nc1ccc2c(c1)S(=O)(=O)N=C(C1=C(O)[C@@H]3[C@@H]4CC[C@@H](C4)[C@@H]3N(Cc3ccc(F)c(Cl)c3)C1=O)N2 — within 1.5-fold, 200 nM
- Cc1cc(CN2C(=O)C(C3=Nc4ccc(NS(C)(=O)=O)cc4S(=O)(=O)N3)=C(O)[C@@H]3[C@@H]4CC[C@@H](C4)[C@@H]32)ccc1F — 3.3-fold lower, 87 nM
- CS(=O)(=O)Nc1ccc2c(c1)S(=O)(=O)NC(C1=C(O)[C@@H]3[C@@H]4CC[C@@H](C4)[C@@H]3N(Cc3ccc(F)c(F)c3)C1=O)=N2 — 2.6-fold lower, 110 nM
- CS(=O)(=O)Nc1ccc2c(c1)S(=O)(=O)NC(C1=C(O)[C@@H]3[C@@H]4CC[C@@H](C4)[C@@H]3N(Cc3ccccc3)C1=O)=N2 — within 1.5-fold, 340 nM
- CS(=O)(=O)Nc1ccc2c(c1)S(=O)(=O)NC(C1=C(O)[C@@H]3[C@@H]4CC[C@@H](C4)[C@@H]3N(Cc3cccc(F)c3)C1=O)=N2 — the same, 290 nM
- CS(=O)(=O)Nc1ccc2c(c1)S(=O)(=O)N=C(C1=C(O)[C@@H]3[C@H]4CC[C@H](C4)[C@@H]3N(Cc3ccc(F)c(F)c3F)C1=O)N2 — within 1.5-fold, 260 nM
- CS(=O)(=O)Nc1ccc2c(c1)S(=O)(=O)N=C(C1=C(O)[C@@H]3[C@H]4CC[C@H](C4)[C@@H]3N(Cc3ccc(F)c(Cl)c3)C1=O)N2 — 9.1-fold lower, 32 nM
- COc1cc(CN2C(=O)C(C3=NS(=O)(=O)c4cc(NS(C)(=O)=O)ccc4N3)=C(O)[C@@H]3[C@H]4CC[C@H](C4)[C@@H]32)ccc1F — 6.3-fold lower, 46 nM
- CS(=O)(=O)Nc1ccc2c(c1)S(=O)(=O)N=C(C1=C(O)[C@@H]3[C@H]4CC[C@H](C4)[C@@H]3N(Cc3ccc(F)cc3Cl)C1=O)N2 — 8.8-fold lower, 33 nM

Tested on: Hepatitis C virus
Test: microbe, parasite or virus in culture
Type: functional, organism-based, Hepacivirus hominis, genotype 1b, Huh-luc/neo-ET
Settings: Hepatitis C virus, genotype 1b, Huh-luc/neo-ET, 72 h
Description: Antiviral activity against HCV-1b infected human Huh-luc/neo-ET replicon cells after 72 hrs by luciferase based replicon assay

Point of comparison: `CS(=O)(=O)Nc1ccc2c(c1)S(=O)(=O)N=C(C1=C(O)[C@@H]3[C@H]4CC[C@H](C4)[C@@H]3N(Cc3ccc(F)cc3F)C1=O)N2`, EC50 10 nM. Against it:
- CS(=O)(=O)Nc1ccc2c(c1)S(=O)(=O)N=C(C1=C(O)[C@@H]3[C@@H]4CC[C@@H](C4)[C@@H]3N(Cc3ccc(F)c(Cl)c3)C1=O)N2 — 2.5-fold lower, 4 nM
- Cc1cc(CN2C(=O)C(C3=Nc4ccc(NS(C)(=O)=O)cc4S(=O)(=O)N3)=C(O)[C@@H]3[C@@H]4CC[C@@H](C4)[C@@H]32)ccc1F — within 1.5-fold, 9 nM
- CS(=O)(=O)Nc1ccc2c(c1)S(=O)(=O)NC(C1=C(O)[C@@H]3[C@@H]4CC[C@@H](C4)[C@@H]3N(Cc3ccc(F)c(F)c3)C1=O)=N2 — within 1.5-fold, 13 nM
- CS(=O)(=O)Nc1ccc2c(c1)S(=O)(=O)NC(C1=C(O)[C@@H]3[C@@H]4CC[C@@H](C4)[C@@H]3N(Cc3ccccc3)C1=O)=N2 — the same, 10 nM
- CS(=O)(=O)Nc1ccc2c(c1)S(=O)(=O)NC(C1=C(O)[C@@H]3[C@@H]4CC[C@@H](C4)[C@@H]3N(Cc3cccc(F)c3)C1=O)=N2 — 2.2-fold higher, 22 nM
- CS(=O)(=O)Nc1ccc2c(c1)S(=O)(=O)N=C(C1=C(O)[C@@H]3[C@H]4CC[C@H](C4)[C@@H]3N(Cc3ccc(F)c(F)c3F)C1=O)N2 — 1.5-fold higher, 15 nM
- CS(=O)(=O)Nc1ccc2c(c1)S(=O)(=O)N=C(C1=C(O)[C@@H]3[C@H]4CC[C@H](C4)[C@@H]3N(Cc3ccc(F)c(Cl)c3)C1=O)N2 — the same, 10 nM
- COc1cc(CN2C(=O)C(C3=NS(=O)(=O)c4cc(NS(C)(=O)=O)ccc4N3)=C(O)[C@@H]3[C@H]4CC[C@H](C4)[C@@H]32)ccc1F — the same, 10 nM
- CS(=O)(=O)Nc1ccc2c(c1)S(=O)(=O)N=C(C1=C(O)[C@@H]3[C@H]4CC[C@H](C4)[C@@H]3N(Cc3ccc(F)cc3Cl)C1=O)N2 — 2-fold lower, 5 nM

Tested on: not listed separately
Test: in vitro
Settings: human, liver microsomes, t1/2

`CS(=O)(=O)Nc1ccc2c(c1)S(=O)(=O)N=C(C1=C(O)[C@@H]3[C@@H]4CC[C@@H](C4)[C@@H]3N(Cc3ccc(F)c(Cl)c3)C1=O)N2` and `CS(=O)(=O)Nc1ccc2c(c1)S(=O)(=O)N=C(C1=C(O)[C@@H]3[C@H]4CC[C@H](C4)[C@@H]3N(Cc3ccc(F)c(Cl)c3)C1=O)N2` cannot be ordered by half-life at 1 µM: over 1 h for the first, over 1 h for the second.

`Cc1cc(CN2C(=O)C(C3=Nc4ccc(NS(C)(=O)=O)cc4S(=O)(=O)N3)=C(O)[C@@H]3[C@@H]4CC[C@@H](C4)[C@@H]32)ccc1F` and `CS(=O)(=O)Nc1ccc2c(c1)S(=O)(=O)NC(C1=C(O)[C@@H]3[C@@H]4CC[C@@H](C4)[C@@H]3N(Cc3ccc(F)c(F)c3)C1=O)=N2` cannot be ordered by half-life at 1 µM: over 1 h for the first, over 1 h for the second.

`CS(=O)(=O)Nc1ccc2c(c1)S(=O)(=O)NC(C1=C(O)[C@@H]3[C@@H]4CC[C@@H](C4)[C@@H]3N(Cc3ccccc3)C1=O)=N2` and `CS(=O)(=O)Nc1ccc2c(c1)S(=O)(=O)N=C(C1=C(O)[C@@H]3[C@H]4CC[C@H](C4)[C@@H]3N(Cc3ccc(F)c(F)c3F)C1=O)N2` cannot be ordered by half-life at 1 µM: over 1 h for the first, over 1 h for the second.

Same assay, conditions: human, microsomes, t1/2

`CS(=O)(=O)Nc1ccc2c(c1)S(=O)(=O)NC(C1=C(O)[C@@H]3[C@@H]4CC[C@@H](C4)[C@@H]3N(Cc3cccc(F)c3)C1=O)=N2` and `CS(=O)(=O)Nc1ccc2c(c1)S(=O)(=O)N=C(C1=C(O)[C@@H]3[C@H]4CC[C@H](C4)[C@@H]3N(Cc3ccc(F)cc3F)C1=O)N2` cannot be ordered by half-life at 1 µM: over 1 h for the first, over 1 h for the second.

`COc1cc(CN2C(=O)C(C3=NS(=O)(=O)c4cc(NS(C)(=O)=O)ccc4N3)=C(O)[C@@H]3[C@H]4CC[C@H](C4)[C@@H]32)ccc1F` and `CS(=O)(=O)Nc1ccc2c(c1)S(=O)(=O)N=C(C1=C(O)[C@@H]3[C@H]4CC[C@H](C4)[C@@H]3N(Cc3ccc(F)cc3Cl)C1=O)N2` cannot be ordered by half-life at 1 µM: over 1 h for the first, over 1 h for the second.

Tested on: not listed separately
Test: in vitro
Settings: human, liver microsomes
Description: Metabolic stability in human liver microsomes assessed as compound remaining after 60 mins at 1 uM

Point of comparison: `Cc1cc(CN2C(=O)C(C3=Nc4ccc(NS(C)(=O)=O)cc4S(=O)(=O)N3)=C(O)[C@@H]3[C@@H]4CC[C@@H](C4)[C@@H]32)ccc1F`, remaining at 1 h, 1 µM 65%. Against it:
- CS(=O)(=O)Nc1ccc2c(c1)S(=O)(=O)N=C(C1=C(O)[C@@H]3[C@@H]4CC[C@@H](C4)[C@@H]3N(Cc3ccc(F)c(Cl)c3)C1=O)N2 — higher, 100%
- CS(=O)(=O)Nc1ccc2c(c1)S(=O)(=O)NC(C1=C(O)[C@@H]3[C@@H]4CC[C@@H](C4)[C@@H]3N(Cc3ccc(F)c(F)c3)C1=O)=N2 — higher, 97%
- CS(=O)(=O)Nc1ccc2c(c1)S(=O)(=O)NC(C1=C(O)[C@@H]3[C@@H]4CC[C@@H](C4)[C@@H]3N(Cc3ccccc3)C1=O)=N2 — higher, 90%
- CS(=O)(=O)Nc1ccc2c(c1)S(=O)(=O)N=C(C1=C(O)[C@@H]3[C@H]4CC[C@H](C4)[C@@H]3N(Cc3ccc(F)c(F)c3F)C1=O)N2 — higher, 100%
- CS(=O)(=O)Nc1ccc2c(c1)S(=O)(=O)N=C(C1=C(O)[C@@H]3[C@H]4CC[C@H](C4)[C@@H]3N(Cc3ccc(F)c(Cl)c3)C1=O)N2 — higher, 87%

Same assay, conditions: human, microsomes

Point of comparison: `CS(=O)(=O)Nc1ccc2c(c1)S(=O)(=O)NC(C1=C(O)[C@@H]3[C@@H]4CC[C@@H](C4)[C@@H]3N(Cc3cccc(F)c3)C1=O)=N2`, remaining at 1 h, 1 µM 96%. Against it:
- COc1cc(CN2C(=O)C(C3=NS(=O)(=O)c4cc(NS(C)(=O)=O)ccc4N3)=C(O)[C@@H]3[C@H]4CC[C@H](C4)[C@@H]32)ccc1F — lower, 66%
- CS(=O)(=O)Nc1ccc2c(c1)S(=O)(=O)N=C(C1=C(O)[C@@H]3[C@H]4CC[C@H](C4)[C@@H]3N(Cc3ccc(F)cc3F)C1=O)N2 — higher, 100%
- CS(=O)(=O)Nc1ccc2c(c1)S(=O)(=O)N=C(C1=C(O)[C@@H]3[C@H]4CC[C@H](C4)[C@@H]3N(Cc3ccc(F)cc3Cl)C1=O)N2 — higher, 98%
